≈ marks a conversion by molar mass, not a printed value. Entries after “also recorded” stand apart in the source; their conditions may differ.
Tests used:
[1] = Solubility test in water by LC/MS; assay type: physicochemical; conditions: room temperature, one atmosphere; for solubility in water, result in words (LC/MS): 1 mg in 1 mL water
Procedure: (§1) In this example, the organic compounds synthesized in Examples 1 and 2 are used to explain the solubility of the organic compound of one embodiment of the present invention. The solubility tests of this example were performed at room temperature (RT) at one atmosphere.
In the LC-MS analysis, liquid chromatography (LC) separation was carried out with ACQUITY UPLC manufactured by Waters Corporation, and MS analysis (mass spectrometry) was carried out with Xevo G2 Tof MS manufactured by Waters Corporation. Acquity UPLC BEH C8 (2.1 × 100 mm, 1.7 µm) was used as a column for the LC separation. Acetonitrile was used for Mobile Phase A and a 0.1 % aqueous solution of formic acid was used for Mobile Phase B. The amount of injection of the sample was 5.0 µL. Note that in the analysis, the wavelength of a photodiode array detector was set to 270 nm.
Into a 5 mL sample bottle, 1 mg of 2,6tip2Py was put and 1 mL of chloroform was added thereto. This mixture was irradiated with ultrasonic waves for five minutes. After it was confirmed that the solid was completely dissolved, this solution was diluted by five times with acetonitrile, whereby the concentration of the solution was adjusted to 200 mg/L. This solution was diluted with acetonitrile, whereby a solution with a concentration of 40 mg/L, a solution with a concentration of 20 mg/L, and a solution with a concentration of 10 mg/L were prepared. The prepared solutions were subjected to LC/MS, and the peak area values derived from 2,6tip2Py, which were obtained at the respective solution concentrations, were used to form calibration curves.
Into a 5 mL sample bottle, 1 mg of 2,6tip2Py was put and 1 mL of water was added thereto. This mixture was irradiated with ultrasonic waves for five minutes. This mixture was filtered through a membrane filter to remove the solid, and the resulting filtrate was diluted by five times with acetonitrile. The obtained solution was subjected to LC/MS.
Into a 5 mL sample bottle, 1 mg of 2,7tip2SF was put and 1 mL of water was added thereto. This mixture was irradiated with ultrasonic waves for five minutes. […]

[2] = Solubility test in water by visual inspection; assay type: physicochemical; conditions: room temperature, one atmosphere; for solubility in water, result in words (visual inspection): about 1.2 mg sample, water added in 10 mL steps (tip compounds)
Procedure: as §1
(§2) Into a 110 mL sample bottle, 1.21 mg of 2,6tip2Py was put and 10 mL of water was added thereto. This mixture was irradiated with ultrasonic waves for one minute. A precipitated white powder was found by visual inspection for an insoluble residue. After further addition of 10 mL of water and one-minute ultrasonic wave irradiation, a precipitated white powder was found by visual inspection. This procedure was repeated until the dissolution was confirmed by visual inspection.
Into a 110 mL sample bottle, 1.23 mg of 2,7tip2SF was put and 10 mL of water was added thereto. This mixture was irradiated with ultrasonic waves for one minute. A precipitated white powder was found by visual inspection for an insoluble residue. After further addition of 10 mL of water and one-minute ultrasonic wave irradiation, a precipitated pale yellow powder was found by visual inspection. This procedure was repeated until the dissolution was confirmed by visual inspection.
Into a 5 mL sample bottle, 50.2 mg of 1,1′-pyridine-2,6-diyl-bis(1,3,4,6,7,8-hexahydro-2H-pyrimido[1,2-a]pyrimidine) (abbreviation: hpp2Py) having a structure where a hydropyrimidine ring is substituted for the imidazole ring of the guanidine skeleton in 2,6tip2Py, which is an organic compound of one embodiment of the present invention, was put, and 1.0 mL of water was added thereto. The dissolution was found by visual inspection for an insoluble residue.
as §2, with “20” for “110”, “1.16” for “1.21”, “1,1′-(9,9′-spirobi[9H-fluorene]-2,7-diyl)bis(1,3,4,6,7,8-hexahydro-2H-pyrimido[1,2-a]pyrimidine) (abbreviation: 2,7hpp2SF) having a structure where a hydropyrimidine ring is substituted for the imidazole ring of the guanidine skeleton in 2,7tip2SF, which is an organic compound of one embodiment of the present invention,” for “2,6tip2Py”, “put,” for “put”, “0.5” for “10”
The precipitated white powder was found until the total amount of water reached 3.0 mL. After further addition of 0.5 mL of water and ultrasonic wave irradiation, no precipitated white powder was found.

Structure (SMILES) | solubility in water, result in words (LC/MS) [1] | solubility at 5 min ([1]; thermodynamic from solid, filtrate quantified by LC/MS against calibration curve, read-out: solubility in 1 mL of water) | solubility in water, result in words (visual inspection) [2] | weight dissolved in 1.0 mL of water ([2]; ultrasonic irradiation, visual inspection, per 1.0 mL of water)
c1cc(N2CCCn3ccnc32)nc(N2CCCn3ccnc32)c1 [2,6tip2Py, 8,8′-pyridine-2,6-diyl-bis(5,6,7,8-tetrahydroimidazo[1,2-a]pyrimidine)] | very low solubility in water | 18 µg/mL (≈ 56 µM) | precipitated white powder was found until the total amount of water reached 100 mL | 
c1cc(N2CCCN3CCCN=C32)nc(N2CCCN3CCCN=C32)c1 [hpp2Py, 1,1′-pyridine-2,6-diyl-bis(1,3,4,6,7,8-hexahydro-2H-pyrimido[1,2-a]pyrimidine)] |  |  | high solubility in water | greater than or equal to 50.2 mg
c1ccc2c(c1)-c1ccccc1C21c2cc(N3CCCn4ccnc43)ccc2-c2ccc(N3CCCn4ccnc43)cc21 [2,7tip2SF, 8,8′-(9,9′-spirobi[9H-fluorene]-2,7-diyl)bls(5,6,7,8-tetrahydrolmidazo[1,2-a]pyrimidine)] | insoluble in water; also recorded: very low solubility in water |  | precipitated pale yellow powder was found until the total amount of water reached 100 mL | 
c1ccc2c(c1)-c1ccccc1C21c2cc(N3CCCN4CCCN=C43)ccc2-c2ccc(N3CCCN4CCCN=C43)cc21 [2,7hpp2SF, 1,1′-(9,9′-spirobi[9H-fluorene]-2,7-diyl)bis(1,3,4,6,7,8-hexahydro-2H-pyrimido[1,2-a]pyrimidine)] |  |  | high solubility in water | 

Reference: patent US20230348477A1, “ORGANIC COMPOUND, LIGHT-EMITTING DEVICE, LIGHT-EMITTING APPARATUS, AND ELECTRONIC DEVICE” (SEMICONDUCTOR ENERGY LABORATORY CO., LTD., priority 2022, published 2023)
